Test results taken from patent publication EP4786454A1, “HETEROARYL DERIVATIVE AND USE THEREOF” (priority 2023, dated 2025).

Assay: Stability in liver microsomes (rat)
Type: in vitro ADME, Sprague-Dawley (SD) rats
Conditions: r (SD rat liver microsomes), 0.5 mg/mL, read-out: MMS Clint
Procedure: The purpose of this study was to evaluate the phase I metabolic stability of the assay sample in liver microsomes from CD-1 mice, Sprague-Dawley (SD) rats, beagle dogs, cynomolgus monkeys, and human.
The animal and human liver microsomes used in this assay system were purchased from Xenotech, Corning, or other qualified suppliers.
Preparation of buffer: 73.21 g of potassium phosphate dibasic trihydrate and 10.78 g of potassium dihydrogen phosphate were dissolved in 4000 mL of ultrapure water. The pH of the solution was adjusted to the range of 7.40 ± 0.10 using 10.0% phosphoric acid or 1.00 M potassium hydroxide. Its final concentration was 100 mM.
Preparation of working solutions: An assay sample powder was prepared into a 10.0 mM stock solution with DMSO, and then further diluted with a suitable organic solvent. The control compounds testosterone, diclofenac, and propafenone were prepared into 10.0 mM stock solutions using DMSO, and then further diluted with a suitable organic solvent.
Preparation of liver microsome solution: Microsomes of various species were diluted with 100 mM potassium phosphate buffer to a working solution of 0.56 mg/mL. The final concentration of microsomes in the reaction system was 0.500 mg/mL. Detailed preparation procedures were described in the experimental records.
Preparation of reduced nicotinamide adenine dinucleotide phosphate (NADPH) solution: An appropriate amount of reduced nicotinamide adenine dinucleotide phosphate was dissolved in magnesium chloride solution, and the mixture was shaken to mix well. The final concentrations in the reaction system were 1.00 mM NADPH and 1.00 mM magnesium chloride, respectively. Detailed preparation procedures were described in the experimental records.
Preparation of stop solution: The stop solution was prepared using acetonitrile containing internal standards (tolbutamide and labetalol). The prepared stop solution was stored at 2.0 to 8.0 °C in a refrigerator. Detailed preparation procedures were described in the experimental records. […]

SMILES | CLint scaled at 1 µM
CC(C)(C)CC(=O)Nc1nc2c(F)cc(C#N)cn2c1-c1ccc(OC(F)(F)F)cc1 [Compound 1] | 193 mL/min/kg
CC(C)(C)CC(=O)Nc1nc2c(F)cc(C#N)cn2c1C1=CCCC1 [Compound 3] | 123 mL/min/kg
CC(C)(C)CC(=O)Nc1nc2c(F)cc(C#N)cn2c1C12CC(C1)C2 [Compound 5] | < 17 mL/min/kg
